The conditions of series [1]: Pharmazie, 37/11, (1982), 753-765; cited from earlier work.
Series [2] in a line: Protection against hypoxia (mouse), survival in atmosphere of progressively decreasing oxygen. In kind it is in vivo, mouse (male, NMRI strain). The note with it: for minimal effective dose: Mus musculus, po, read-out: 1st effective dose (increases survival of animals deprived of oxygen, from this dose upwards); for Number of surviving animals, treated: survivors/treated. The source says:
I. Protection against hypoxia (mouse)
a. Principle (C. GIURGEA and F. MOURAVIEFF-LESUISSE; Proc. Xth Intern. Congr. of the Coll. Intern. Neuro-psych.-Pergamon Press, Oxford and New York, 1978, p. 1623-1631).
Due to the particular sensitivity of the nervous system to this type of aggression, the results obtained in this test can be interpreted as a measure of the resistance of the central nervous system. Compounds which increase the resistance of the animals to this stress are suitable for the treatment and prevention of hypoxic type aggressions of the central nervous system.
The apparatus consists of an airtight transparent cage 37 cm high, 39 cm deep and 97 cm wide. This 140 liter cage is provided with 60 transparent compartments each 6×10×10 cm, making it possible to separately accomodate 60 mice.
A fan ensures circulation of the atmosphere between the compartments through a grid floor. The cage is equipped with a device for introducing nitrogen at a constant flow rate, and with an orifice communicating with the ambient atmosphere. Male mice (NMRI strain) weighing 20 to 22 g, are kept fasting as from the day before the test. The experiment is effected on the following day, simultaneously on 3 groups of 20 mice; a control group is given water (25 ml/kg) orally, and the other two groups are each given orally a compound to be tested.
25 minutes after the administration, the animals are distributed at random amongst the compartments so that none of the three groups is concentrated in a preferred area of the cage.
30 minutes after administration, the cage is closed and nitrogen is admitted into it at a constant flow rate (7.75 liters of technical grade nitrogen per minute) for about 37 minutes, at which stage the atmosphere contains 3.7% oxygen.
The cage is left closed until the critical moment where no more than 3 survivors are observed among the 20 control animals. At that moment, the cage is opened and atmospheric air admitted into it. A few moments later the survivors in each group of animals are counted.
For each dose of compound to be tested, the experiments are repeated once or twice, and the results pooled to obtain a minimum of 40 (or 60) animals treated per dose and 40 (or 60) corresponding control animals.
For each dose of compound tested, the number of surviving animals among those treated with the compound is compared with the number of surviving animals among the control animals. The difference between these numbers expresses the protective activity of the compound against hypoxia caused by oxygen deprivation. The statistical significance (P) of this difference is evaluated by the Fischer-Yates test.

A short description of series [3]: Protection against cerebral ischemia (rats), survival after ligature of the 2 common carotids. In kind it is in vivo, rat (male Wistar). The following applies: for lowest active dose (protects against lethality induced by simultaneous ligature of the two carotids, from this dose upwards): intraperitoneal; for Number of surviving animals, treated: survivors/treated, 24 hours. On the procedure: II. Protection against cerebral ischemia (rats)
a. Principle (C. GIURGEA and F. MOURAVIEFF-LESUISSE; see above under Ia.
Electroencephalographic controls have shown that the ligature of the 2 common carotids in the rat causes a true cerebral ischemia: the electroencephalogram trace flattens and even becomes isoelectric (electric silence).
Male Wistar rats weighing between 250 and 350 g are anesthetized with pentobarbital administered intraperitoneally at a dose of 50 mg/kg (0.5 ml/100 g).
Immediately after the anesthesia, the animals are administered intraperitoneally with an amount of 0.5 ml/100 g, either the compound to be tested dissolved in an isotonic sodium chloride solution (treated animals), or only an isotonic sodium chloride solution or placebo (control animals). About 20 minutes later, the 2 common carotids are exposed and about 10 minutes later ligatured simultaneously. This operation is effected simultaneously on the control animals and the treated animals.
An hour after administration of the compound to be tested or of the placebo, there is again administered intraperitoneally the same dose of either the compound to be tested (to the treated animals) or the placebo (to the control animals).
5 hours after the first administration, there is administered for the third time the same dose of either the compound to be tested (to the surviving treated animals) or the placebo (to the surviving control animals). 24 hours after the first administration the efficacy of the ligature is verified in all animals, under pentobarbital anesthesia, by section of the carotids downstream of the ligature. The number of surviving animals is recorded among both the treated animals and the control animals. For each dose of compound tested, the number of surviving animals among those treated with the compound is compared with the number of surviving animals among the control animals. The difference expresses the protective activity of the compound against the lethality induced by the simultaneous ligature of the 2 carotids. The statistical significance (P) of this difference is evaluated by the Brandt-Snedecor test.

The nature of series [4]: Toxicity, LD50 after intravenous administration, rat. The following applies: in vivo, male rat. An excerpt:
(§1) Table III below gives, for compounds A and B, the LD50, in mg/kg, determined on the male mouse and the male rat after intravenous administration: […]

Another series concerns male mouse and male rat. Nature of the series: Toxicity, conclusion from LD50 in mouse and rat. In kind it is in vivo. The following applies: for toxicity: intravenous, mouse and rat.
Source text: as §1

Series [5] is described as follows: Toxicity, LD50 after intravenous administration, mouse. The following applies: in vivo, male mouse.
Source text: as §1

Setting [6] is: intraperitoneal dose 0.32 mmol/kg.

Molecules are shown by their SMILES.

Turning to `CCC(C(N)=O)N1CCCC1=O` (racemic) [A, Racemic alpha-ethyl-2-oxo-1-pyrrolidineacetamide, reference compound], in series [1], the “protective activity against aggressions of the central nervous system caused by hypoxias, cerebral ischemia, etc.” value is listed as “possesses a protective activity”. For the same compound, the minimal effective dose in series [2] worked out at 320 µmol/kg. The “Number of surviving animals, treated” value in series [2] (oral dose 0.032 mmol/kg) is on record as 16/60; in series [2] (oral dose 0.1 mmol/kg), 7/60; in series [2] (oral dose 0.16 mmol/kg), 12/60; in series [2] (oral dose 0.32 mmol/kg), 30/60; in series [3] (setting [6]), 8/29; in series [3] (intraperitoneal dose 0.64 mmol/kg), 21/30. Besides, the “lowest active dose (protects against lethality induced by simultaneous ligature of the two carotids, from this dose upwards)” value in series [3] is 0.64 mmol/kg. For the same compound, the LD50 in series [4] was determined as 1500 mg/kg; in series [5], 1790 mg/kg. The toxicity entry with male mouse and male rat is listed as “very low toxicity”.

On to `CC[C@@H](C(N)=O)N1CCCC1=O` [B, (S)-alpha-ethyl-2-oxo-1-pyrrolidineacetamide], for which the minimal effective dose in series [2] was 32 µmol/kg. Also, the “Number of surviving animals, treated” value in series [2] (oral dose 0.016 mmol/kg) is given as 11/40; in series [2] (oral dose 0.032 mmol/kg), 17/40; in series [2] (oral dose 0.1 mmol/kg) it was 19/40; in series [2] (oral dose 0.16 mmol/kg) it was 19/40; in series [2] (oral dose 0.32 mmol/kg), 17/40; in series [3] (intraperitoneal dose 0.1 mmol/kg), 14/29. Moreover, the results for the “Number of surviving animals, treated” value in series [3] (intraperitoneal dose 0.16 mmol/kg) and in series [3] (setting [6]) were 14/30 and 19/29, respectively. In addition, the “protective activity against hypoxia relative to the racemate” value in series [2] (vs racemate (compound A)) stood at 10 times. Moreover, the “lowest active dose (protects against lethality induced by simultaneous ligature of the two carotids, from this dose upwards)” value in series [3] came out at 0.16 mmol/kg. For the same compound, in series [3] (vs racemate (compound A)), the “protective activity against ischemia relative to the racemate” value came to 4 times. In addition, the figures for the LD50 in series [4] and in series [5] were 1040 mg/kg and 1080 mg/kg, respectively. Besides, in the series on male mouse and male rat (in vivo), the “toxic dose compared with active dose” value is “toxic dose is well above the active dose”. For the same compound, the toxicity entry with male mouse and male rat is “very low toxicity”.

As usually defined, the LD50 is the dose at which mortality reaches 50%. Read a high LD50 as a less toxic substance.

The record behind these values is patent US4837223A, “(S)-alpha-ethyl-2-oxo-1-pyrrolidineacetamide compositions” (UCB Societe Anonyme, priority 1984, dated 1989).
